One test concerns the target D(3) dopamine receptor (Homo sapiens, UniProt P35462). The test is described as follows: biochemical.
A further test deals with T1, D(4) dopamine receptor (Homo sapiens, UniProt P21917).
T1 sequence (P21917 whole entry): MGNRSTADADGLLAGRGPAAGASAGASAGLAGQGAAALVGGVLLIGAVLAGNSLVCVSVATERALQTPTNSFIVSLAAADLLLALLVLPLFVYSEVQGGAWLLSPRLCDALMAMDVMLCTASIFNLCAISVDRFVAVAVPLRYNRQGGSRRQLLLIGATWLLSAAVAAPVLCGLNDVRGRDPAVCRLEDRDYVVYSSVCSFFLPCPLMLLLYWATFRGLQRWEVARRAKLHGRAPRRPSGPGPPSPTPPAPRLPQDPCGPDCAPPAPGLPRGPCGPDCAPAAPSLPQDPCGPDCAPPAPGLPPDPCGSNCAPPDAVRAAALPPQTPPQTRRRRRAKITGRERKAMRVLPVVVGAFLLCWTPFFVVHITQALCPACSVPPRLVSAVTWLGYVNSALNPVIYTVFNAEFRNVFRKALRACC
The test is described as follows: biochemical.

Our source for the Ki values is ChEMBL document CHEMBL1129307, “5-(4-Chlorophenyl)-4-methyl-3-(1-(2-phenylethyl)piperidin-4-yl)isoxazole: a potent, selective antagonist at human cloned dopamine D4 receptors” (J Med Chem, 1996).

pKi: −log10 of the molar value.

D(3) dopamine receptor, sequence (P35462 whole entry): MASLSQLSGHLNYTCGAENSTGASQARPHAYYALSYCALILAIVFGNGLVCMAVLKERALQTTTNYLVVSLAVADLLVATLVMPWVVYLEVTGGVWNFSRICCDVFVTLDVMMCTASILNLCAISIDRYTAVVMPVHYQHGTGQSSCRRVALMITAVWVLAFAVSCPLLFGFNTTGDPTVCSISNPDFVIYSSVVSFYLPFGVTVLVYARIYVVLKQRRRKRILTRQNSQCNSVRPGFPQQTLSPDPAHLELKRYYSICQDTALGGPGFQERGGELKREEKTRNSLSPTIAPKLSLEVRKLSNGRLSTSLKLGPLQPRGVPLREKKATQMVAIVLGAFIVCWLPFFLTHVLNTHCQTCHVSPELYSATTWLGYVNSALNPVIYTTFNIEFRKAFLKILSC
Description for D(3) dopamine receptor: Displacement of [3H]spiperone from human Dopamine receptor D3 expressed in CHO cells
Description for D(4) dopamine receptor: Displacement of [3H]spiperone from human Dopamine receptor D4 expressed in HEK293 cells

Usually pKi stands for the negative decadic logarithm of the Ki, by convention in mol/L. A high value points to a small Ki. Turning to `Cc1c(-c2ccc(Cl)cc2)noc1C1CCN(CCc2ccccc2)CC1`, the pKi on D(3) dopamine receptor is 6.32; at D(4) dopamine receptor, 8.60.

In the case of `Clc1ccc(CN2CCC(c3cc(-c4ccc(Cl)cc4)on3)CC2)cc1`, the pKi is 6.37 on D(3) dopamine receptor and 7.36 on D(4) dopamine receptor.

Turning to `Cc1c(C2CCN(CCc3ccccc3)CC2)n[nH]c1-c1ccc(Cl)cc1`, the pKi at D(3) dopamine receptor was 5.92; at D(4) dopamine receptor, 8.92.

Take `Clc1ccc(CN2CCC(c3cc(-c4ccc(Cl)cc4)[nH]n3)CC2)cc1`: the negative-log Ki (pKi) on D(3) dopamine receptor is 6.09; on D(4) dopamine receptor, 7.21.

As for `Clc1ccc(CN2CCC(c3cc(-c4ccc(Cl)cc4)no3)CC2)cc1`, the figures for the pKi on D(3) dopamine receptor and at D(4) dopamine receptor were 7.09 and 8.44, respectively.

For the molecule `Clc1ccc(-c2cc(C3CCN(CCc4ccccc4)CC3)[nH]n2)cc1`, the pKi on D(3) dopamine receptor is under 5.40; on D(4) dopamine receptor it was 8.26.
